“Also recorded” adds a separate entry of the source.
How the values were obtained:
human PBMCs = experiment: Human PBMC cytokine response assay (IFN-γ and IFN-α in cell-free medium by ELISA), with or without cPLGA;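 on IFN-α (pg/ml) mean: 20 µg/mL compound for 24 hours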;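 on IFN-γ (pg/ml) mean: 20 µg/mL compound for 24 hours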; assay type: cell-based; conditions: for IFN-α induction (FIG. 10), in words: PBMCs from 8 donors
CD19+ B cells = experiment: Human B cell proliferation assay (3H-thymidine incorporation); conditions: for B cell proliferation (FIG. 11), in words: purified human B cells, 5 μg/ml, 96 h
Method: Purified human B cells from 2 donors were stimulated with 5 μg/ml P-6 or CIC for 96 h. Proliferation was assessed by ^3H-thymidine incorporation.
A CIC is considered to induce “little” human B cell proliferation if B cell proliferation in the presence of the CIC is between greater than 15 to about 30% of P-6.
Human PBMCs were isolated from heparanized blood from two normal subjects. Some PBMCs were held in reserve while the remainder was incubated with CD19+ MACS beads (Miltenyi Biotec). These cells were then passed through a magnet, separating the CD19+ B cells through positive selection. […] B cells were then cultured at 1×10^5/200 μl/well in 96-well round-bottomed plates. In some cases, PBMCs were also cultured, but at 2×10^5/200 μl/well. Cells were stimulated in triplicate with 2 μg/ml polynucleotide or CIC. The culture period was 48 hours at 37° C. At the end of the culture period, the plates were pulsed with ^3H-thymidine, 1 μCi/well, and incubated for an additional 8 hours. Then the plates were harvested using standard liquid scintillation techniques and data was collected in counts per minutes (cpm).

[1] = Table 24, mean of donors 28234-28237
[2] = Table 25, mean of donors 28250-28253
[3] = mean of donors 110, 112, 119, 120, Table 14
[4] = mean of donors 28185-28188, Table 15
[5] = mean of donors 28218-28221, 20 μg/ml, 24 h
[6] = B cells, donor 121, 2 μg/ml, Experiment B
[7] = B cells, donor 194, 2 μg/ml, Experiment B

## (5′-TCGTCGA-3′-HEG)2-glycerol-HEG-5′-TCGTCGA-3′ [Compound C-94]
Human PBMCs; 20 μg/ml, 24 h
  IFN-α induction (FIG. 10), in words: induce high levels of IFN-α
Human PBMCs; Table 11, donor 28042
  IFN-α: 302 pg/mL
  IFN-γ: 443 pg/mL
Human PBMCs; Table 11, donor 28043
  IFN-α: 252 pg/mL
  IFN-γ: 198 pg/mL
Human PBMCs; Table 11, donor 28044
  IFN-α: 664 pg/mL
  IFN-γ: 1417 pg/mL
Human PBMCs; Table 11, donor 28045
  IFN-α: 1855 pg/mL
  IFN-γ: 888 pg/mL
Human PBMCs; Table 11, mean of donors
  IFN-α mean: 768 pg/mL
  IFN-γ mean: 736 pg/mL
Human PBMCs; Table 24, donor 28234
  IFN-α: 16 pg/mL
  IFN-γ: 7 pg/mL
Human PBMCs; Table 24, donor 28235
  IFN-α: 118 pg/mL
  IFN-γ: 161 pg/mL
Human PBMCs; Table 24, donor 28236
  IFN-α: 548 pg/mL
  IFN-γ: 239 pg/mL
Human PBMCs; Table 24, donor 28237
  IFN-α: 3631 pg/mL
  IFN-γ: 1116 pg/mL
Human PBMCs; [1]
  IFN-α mean: 1078 pg/mL
  IFN-γ mean: 381 pg/mL
Human PBMCs; Table 25, donor 28250
  IFN-a: 245 pg/mL
Human PBMCs; Table 25, donor 28250, polynucleotides/spacers at amounts equivalent to the CIC, spacers alone 9 uM
  IFN-g: 340 pg/mL
Human PBMCs; Table 25, donor 28251
  IFN-a: 645 pg/mL
  IFN-g: 60 pg/mL
Human PBMCs; Table 25, donor 28252
  IFN-a: 323 pg/mL
  IFN-g: 287 pg/mL
Human PBMCs; Table 25, donor 28253
  IFN-a: 1198 pg/mL
  IFN-g: 128 pg/mL
Human PBMCs; [2]
  IFN-a mean: 603 pg/mL
  IFN-g mean: 204 pg/mL
Human PBMCs; branched vs linear CIC with the same nucleic acid moieties
  IFN-α induced relative to linear CIC C-21: 4 fold
Human PBMCs; donor 110, Table 14
  IFN-α: 1608 pg/mL
  IFN-γ: 5168 pg/mL
Human PBMCs; donor 112, Table 14
  IFN-α: 144 pg/mL
  IFN-γ: 284 pg/mL
Human PBMCs; donor 119, Table 14
  IFN-α: 2610 pg/mL
  IFN-γ: 104 pg/mL
Human PBMCs; donor 120, Table 14
  IFN-α: 878 pg/mL
  IFN-γ: 120 pg/mL
Human PBMCs; donor 28185, Table 15
  IFN-a: 1895 pg/mL
  IFN-g: 181 pg/mL
Human PBMCs; donor 28186, Table 15
  IFN-a: 239 pg/mL
  IFN-g: 61 pg/mL
Human PBMCs; donor 28187, Table 15
  IFN-a: 136 pg/mL
  IFN-g: 384 pg/mL
Human PBMCs; donor 28188, Table 15
  IFN-a: 13 pg/mL
  IFN-g: 17 pg/mL
Human PBMCs; donor 28218, 20 μg/ml, 24 h
  IFN-a (pg/ml) 28218: 32 pg/mL
  IFN-g (pg/ml) 28218: 15 pg/mL
Human PBMCs; donor 28219, 20 μg/ml, 24 h
  IFN-a (pg/ml) 28219: 167 pg/mL
  IFN-g (pg/ml) 28219: 39 pg/mL
Human PBMCs; donor 28220, 20 μg/ml, 24 h
  IFN-a (pg/ml) 28220: 633 pg/mL
  IFN-g (pg/ml) 28220: 44 pg/mL
Human PBMCs; donor 28221, 20 μg/ml, 24 h
  IFN-a (pg/ml) 28221: 412 pg/mL
  IFN-g (pg/ml) 28221: 269 pg/mL
Human PBMCs; [3]
  IFN-α (pg/ml) mean: 1310 pg/mL
  IFN-γ (pg/ml) mean: 1419 pg/mL
Human PBMCs; [4]
  IFN-a (pg/ml) mean: 571 pg/mL
  IFN-g (pg/ml) mean: 161 pg/mL
Human PBMCs; [5]
  IFN-a (pg/ml) mean: 311 pg/mL
  IFN-g (pg/ml) mean: 92 pg/mL
Human PBMCs; mean ×2, Table 15
  IFN-a (pg/ml) ×2: 1142 pg/mL
Human PBMCs; mean ×4, Table 15
  IFN-g (pg/ml) ×4: 644 pg/mL
Human PBMCs; used alone
  IFN-α induction, in words: dramatically higher; also recorded: induced more IFN-α relative to linear CICs with HEG spacers; also recorded: HEG (C-94)>TEG (C-103)>C3 (C-104)=no linker (C-28)
CD19+ B cells; [6]
  cpm1: 11418 cpm
  cpm2: 14406 cpm
  cpm3: 11110 cpm
CD19+ B cells; B cells, donor 121 mean, 2 μg/ml, Experiment B
  mean cpm: 12311 cpm
CD19+ B cells; [7]
  cpm1: 7361 cpm
  cpm2: 8505 cpm
  cpm3: 5349 cpm
CD19+ B cells; B cells, donor 194 mean, 2 μg/ml, Experiment B
  mean cpm: 7072 cpm
CD19+ B cells; B cells, mean of donors 121 and 194, 2 μg/ml, Experiment B
  mean of both: 9692 cpm
CD19+ B cells
  B cell proliferation (FIG. 11), in words: induce B cells to proliferate

## (5′-TCGTCGT-3′-HEG)2-glycerol-HEG-5′-TCGTCGT-3′ [Compound C-142]
Human PBMCs; 20 μg/ml, 24 h
  IFN-α induction (FIG. 10), in words: induce high levels of IFN-α
CD19+ B cells
  B cell proliferation (FIG. 11), in words: induce B cells to proliferate

## (5′-TCGTTCG-3′-HEG)2-glycerol-HEG-5′-TCGTTCG-3′ [Compound C-158]
Human PBMCs; 20 μg/ml, 24 h
  IFN-α induction (FIG. 10), in words: induce high levels of IFN-α
CD19+ B cells
  B cell proliferation (FIG. 11), in words: induce B cells to proliferate

Reference: patent US9028845B2, “Chimeric immunomodulatory compounds and methods of using the same-IV” (Dynavax Technologies Corporation, priority 2001, dated 2015)
